Legend:
Assay type in all cases: cell-based
[1] = cytotoxic assay, HeLa cells; conditions: human, read-out: IC50, cytotoxic effects against HeLa cells
Description: (§1) HeLa cells were used for the cytotoxic assay, HUVEC and K-562 cells were taken for the antiproliferative assay. The assays were conducted with phaeofungin C as described previously (Krauth et al., Bioorg. Med. Chem. 2010, 18, 1816-1821; Abdou et al., Phytochemistry 2010, 71, 110-116). Dose-response curves and IC50 values were then plotted and estimated, respectively.

HUVEC = test: antiproliferative assay, HUVEC; conditions: Homo sapiens, read-out: GI50, inhibition of proliferation of HUVEC
Description: as §1

[2] = tested on: K-562 human leukemia cell lines; test: antiproliferative assay, K-562; conditions: K562, read-out: GI50, inhibition of proliferation of K-562 human leukemia cell lines
Description: as §1

## Cc1cc(O)c(O)c(Oc2cc(C)c3c4c(c(=O)oc3c2O)Nc2c(O)cc(C)cc2S4)c1 [Phaeofungin C]
[1]
  IC50: 10 µM
HUVEC
  GI50: 7.5 µM
[2]
  GI50: 2.4 µM
